Measured values: paper PMC5299686, “Betanodavirus-like particles enter host cells via clathrin-mediated endocytosis in a cholesterol-, pH- and cytoskeleton-dependent manner” (Veterinary Research, 2017)
Like-named read-outs stand apart in the source and are kept apart here.

Tests used:
SB cells = experiment: Cytotoxicity assay (CellTiter 96 AQueous One Solution Cell Proliferation Assay)
Procedure: To optimize the working concentration of the inhibitors, the cytotoxicity of the drugs to SB cells were evaluated. SB cells grown in 96-well plates were treated with the inhibitors at different concentrations for 4 h. Then cell viability was assayed using CellTiter 96® AQueous One Solution Cell Proliferation Assay (Promega, USA) according to the manufacturer’s instructions.

RBS entry into SB cells [1] = experiment: VLP (RBS) entry assay with inhibitor or siRNA perturbation, ELISA quantitation; format: cell-based, Lates calcarifer; details: for change of RBS entry efficiency compared with untreated cells: 2 h entry
Procedure: (§1) Virus-like particles entry (invasion) assays were performed using SB or other indicated cells as described. In brief, the cells were seeded on coverslips in 12-well plates or cultured in 96-well plates for 18 or 24 h to achieve 70% confluence, pretreated with the indicated inhibitors at the indicated temperature (26 °C for fish cells, 28 °C for insect cells, and 37 °C for mammalian cells) and concentration (Table 1) for 1 h, and then incubated with RBS or CGV in the presence of the inhibitors for 1 h on ice. After that, the cells were washed three times with pre-cooling PBS, shifted to 28 °C to start entry, and visualized directly by fluorescent microscopy for CGV entry kinetics, or fixed for IFA followed by fluorescent microscopy, or collected for ELISA at the indicated times. In the untreated (positive) or mock-infected (negative) controls, the cells were subjected to no inhibitor treatment or no VLP incubation respectively. The entry assay of each inhibitor was repeated at least three times.
Six wells of cells in a 96-well plate treated with the same condition in entry assays were washed thoroughly with PBS, lysed with 20 μL of lysis buffer in each well and combined as one sample. Endogenous β-actin was used as an internal normalization control for ELISA. Three-hundred microliters of 30-fold diluted lysate for VLP detection or 100-fold diluted lysate for β-actin detection were coated equally in three wells of a 96-well microtiter plate at 4 °C overnight, respectively. The plate was conducted to room temperature and washed three times with 200 μL PBS. After blocking with 5% bovine serum albumin (BSA) in PBS for 1 h at room temperature and washing three times (all washes below indicate triplicate washings) with 200 μL PBS containing 0.05% Tween20 (PBST), the plate was incubated with in-house produced mouse anti-VLP antiserum at a dilution of 1:2000 in PBS for 1 h. The plate was washed and peroxidase-conjugated goat anti-mouse IgG (Sigma) at a dilution of 1:3000 in PBS was added and incubated for 1 h. Following thorough washings (five times), 100 μL of OPD substrate (Sigma) was added and the color development was conducted at room temperature. The reaction was stopped by the addition of 4 M sulfuric acid and the absorbance at 492 nm was determined. The OD492 of each sample including treated and untreated cells was normalized with the corresponding OD492 of β-actin to obtain the relative VLP quantity. The entry efficiency was generated as the percentage of treated cells with incorporated VLP relative to that for untreated cells. The VLP entry efficiency of untreated cells was arbitrarily set as 100%. The data shown are the mean ± SD of the results from three independent experiments. Statistical differences of VLP content from different groups were assessed by paired Student’s t tests. Numerical results are presented as mean ± SD with 95% confidence intervals and p < 0.05 was considered statistically significant (*, p < 0.05; **, p < 0.01).

RBS entry into SB cells [2] = experiment: VLP (RBS) entry assay, IFA and fluorescent microscopy; format: cell-based, Lates calcarifer; details: at the working concentrations (CPZ 1 to 70 μM; dynasore 1, 10, 80 μM; siRNA 48 h post-transfection)
Procedure: (§2) Virus-like particles entry (invasion) assays were performed using SB or other indicated cells as described. In brief, the cells were seeded on coverslips in 12-well plates or cultured in 96-well plates for 18 or 24 h to achieve 70% confluence, pretreated with the indicated inhibitors at the indicated temperature (26 °C for fish cells, 28 °C for insect cells, and 37 °C for mammalian cells) and concentration (Table 1) for 1 h, and then incubated with RBS or CGV in the presence of the inhibitors for 1 h on ice. […]
(§3) Cells were washed twice with PBS, fixed with 4% paraformaldehyde for 15 min, permeated with 0.2% Triton X-100 for 10 min, and then blocked with 5% BSA for 1 h. […] For identification of entry and trafficking of RBS in cells, images were acquired using a laser scanning confocal fluorescence microscope (TCS-SP5, Leica Microsystems Wetzlar GmbH Inc., Germany). Images were acquired randomly from 5 different fields of view per coverslip to get more than 20 cells and to allow observing the signals of targets and nuclei fluorescence by Leica Application Suite (2.6.0 build 7266). […] The results are expressed as the mean ± standard deviation (SD).

RBS entry into GB cells = experiment: VLP entry assay and IFA on GB cells; format: cell-based, Epinephelus coioides; details: GB cells pretreated with CPZ for 1 h
Procedure: as §2, §3

[3] = test system: RBS entry into SSN-1 cells; experiment: VLP entry assay and IFA on SSN-1 cells; format: cell-based, Channa striatus; details: SSN-1 cells pretreated with CPZ for 1 h
Procedure: as §2, §3

CGV entry into SB cells = experiment: CGV entry assay, ELISA quantitation; format: cell-based, Lates calcarifer
Procedure: as §1, with “In the untreated (positive) or mock-infected (negative) controls, the cells were subjected to no inhibitor treatment or no VLP incubation respectively. The entry assay of each inhibitor was repeated at least three times.” left out
Six wells of cells in a 96-well plate treated with the same condition in entry assays were washed thoroughly with PBS, lysed with 20 μL of lysis buffer in each well and combined as one sample. […] The reaction was stopped by the addition of 4 M sulfuric acid and the absorbance at 492 nm was determined. The OD492 of each sample including treated and untreated cells was normalized with the corresponding OD492 of β-actin to obtain the relative VLP quantity. […] Statistical differences of VLP content from different groups were assessed by paired Student’s t tests. […]

[4] = Lates calcarifer, read-out: RBS entry blocked (inhibited)
[5] = 40 μM inhibitor alone, SB cells, ELISA
[6] = 1 mM inhibitor, SB cells, ELISA

## C=C1[C@@H](C)[C@H]2[C@H](Cc3ccccc3)NC(=O)[C@]23[C@H](OC(C)=O)/C=C/[C@@](C)(O)C(=O)[C@@H](C)C/C=C/[C@H]3[C@@H]1O [CytD, cytochalasin D]
SB cells; SB cells, 4 h treatment
  MC, max concentration that can be used without cytotoxicity: 77.8 µM
RBS entry into SB cells [1]; [4]
  inhibition at 1 µM: 83.2%
  inhibition at 10 µM: 96%
  inhibition at 77.8 µM: 96.5%

## O=C(N/N=C/c1ccc(O)c(O)c1)c1cc2ccccc2cc1O [dynasore]
RBS entry into SB cells [2]
  fluorescent signal of RBS in cells (IFA) compared with untreated cells: significantly reduced
SB cells; SB cells, 4 h treatment
  MC, max concentration that can be used without cytotoxicity: 800 µM
RBS entry into SB cells [1]; 1 μM inhibitor, SB cells, ELISA
  VLP entry efficiency (untreated cells = 100%): 71.4%
RBS entry into SB cells [1]; 10 μM inhibitor, SB cells, ELISA
  VLP entry efficiency (untreated cells = 100%): 48.5%
RBS entry into SB cells [1]; 80 μM inhibitor, SB cells, ELISA
  VLP entry efficiency (untreated cells = 100%): 40%

## COC(=O)Nc1nc2ccc(C(=O)c3cccs3)cc2[nH]1 [nocodazole]
SB cells; SB cells, 4 h treatment
  MC, max concentration that can be used without cytotoxicity: 160 µM
RBS entry into SB cells [1]; [4]
  inhibition at 1 µM: 59.4%
  inhibition at 5 µM: 74%
  inhibition at 50 µM: 81.3%

## CN(C)CCCN1c2ccccc2Sc2ccc(Cl)cc21 [CPZ, chlorpromazine]
RBS entry into GB cells
  VLP entry efficiency in treated compared with untreated samples (IFA): dramatically decreased
RBS entry into SB cells [2]
  fluorescent signal of RBS in cells (IFA) compared with untreated cells: significantly reduced
[3]
  VLP entry efficiency in treated compared with untreated samples (IFA): dramatically decreased
SB cells; SB cells, 4 h treatment
  MC, max concentration that can be used without cytotoxicity: 700 µM
RBS entry into SB cells [1]; 7 μM inhibitor alone, SB cells, ELISA
  change of RBS entry efficiency compared with untreated cells: dramatically reduced
RBS entry into SB cells [1]; 70 μM inhibitor, SB cells, ELISA
  VLP entry efficiency (untreated cells = 100%): 5%
RBS entry into SB cells [1]; [4]
  inhibition at 1 µM: 70%
  inhibition at 7 µM: 80%
  inhibition at 70 µM: 95%

## Oc1ccc2ccccc2c1SSc1c(O)ccc2ccccc12 [IPA-3]
SB cells; SB cells, 4 h treatment
  MC, max concentration that can be used without cytotoxicity: 40 µM
RBS entry into SB cells [1]; [5]
  change of RBS entry efficiency compared with untreated cells: no statistically significant change

## CCN(CC)CCCC(C)Nc1ccnc2cc(Cl)ccc12 (centres unmarked) [chloroquine]
SB cells; SB cells, 4 h treatment
  MC, max concentration that can be used without cytotoxicity: 1000 µM
RBS entry into SB cells [1]; [6]
  RBS entry blocked (inhibited): totally block
RBS entry into SB cells [1]; [4]
  inhibition at 10 µM: > 70%

## Cl.N [NH4Cl, ammonia chloride]
SB cells
  MC, max concentration that can be used without cytotoxicity: 50 000 μM
RBS entry into SB cells [1]; 50 mM inhibitor, SB cells, ELISA
  VLP entry efficiency (untreated cells = 100%): 25%

## CC(=O)c1c(O)c(C)c(O)c(Cc2c(O)c3c(c(C(=O)/C=C/c4ccccc4)c2O)OC(C)(C)C=C3)c1O [rottlerin]
SB cells; SB cells, 4 h treatment
  MC, max concentration that can be used without cytotoxicity: 40 µM
RBS entry into SB cells [1]; [5]
  change of RBS entry efficiency compared with untreated cells: no statistically significant change

## CCN(CC)CCCC(C)Nc1nc(C)cc(Nc2ccc3nc(C)cc(N)c3c2)n1 (centres unmarked) [NSC23766]
SB cells; SB cells, 4 h treatment
  MC, max concentration that can be used without cytotoxicity: 40 µM
RBS entry into SB cells [1]; [5]
  change of RBS entry efficiency compared with untreated cells: no statistically significant change

## COC[C@H]1OC(=O)c2coc3c2[C@@]1(C)C1=C(C3=O)[C@@H]2CCC(=O)[C@@]2(C)C[C@H]1OC(C)=O [wortmannin]
SB cells; SB cells, 4 h treatment
  MC, max concentration that can be used without cytotoxicity: 50 µM
RBS entry into SB cells [1]; [4]
  inhibition at 1 µM: -1.4%
  inhibition at 10 µM: 0.82%
  inhibition at 50 µM: 23%

## O=S(=O)(c1cccc2c(I)cccc12)N1CCCNCC1 [ML-7]
SB cells; SB cells, 4 h treatment
  MC, max concentration that can be used without cytotoxicity: 40 µM
RBS entry into SB cells [1]; [5]
  change of RBS entry efficiency compared with untreated cells: no statistically significant change

## methyl-β-cyclodextrin [MβCD]
RBS entry into SB cells [1]; 0.5 mM inhibitor, SB cells, ELISA
  RBS entry blocked (inhibited): 63.6%
RBS entry into SB cells [1]; [6]
  RBS entry blocked (inhibited): 59.5%
RBS entry into SB cells [1]; 2 mM inhibitor, SB cells, ELISA
  RBS entry blocked (inhibited): 74.4%

## CN(C)C[C@H](O)Cn1c2ccc(Br)cc2c2cc(Br)ccc21 (racemic) [wiskostatin]
SB cells; SB cells, 4 h treatment
  MC, max concentration that can be used without cytotoxicity: 50 µM
RBS entry into SB cells [1]; [4]
  inhibition at 1 µM: 77.9%
  inhibition at 10 µM: 84.6%
  inhibition at 50 µM: 94.2%

## CC(C)CCC[C@@H](C)[C@H]1CC[C@H]2[C@@H]3CC=C4C[C@@H](O)CC[C@]4(C)[C@H]3CC[C@]12C [cholesterol]
CGV entry into SB cells; SB cells not treated with MβCD
  effect of cholesterol supplement on CGV entry: did not enhance the entry of CGV
CGV entry into SB cells; SB cells pretreated with 5 mM MβCD, then exogenous cholesterol 0.8 μg/μL for 1 h
  CGV entry efficiency after cholesterol replenishment compared with mock-treated cells: 57%

## O=c1c(-c2ccc(O)cc2)coc2cc(O)cc(O)c12 [genistein]
SB cells; SB cells, 4 h treatment
  MC, max concentration that can be used without cytotoxicity: 100 µM
RBS entry into SB cells [1]; 100 μM inhibitor, SB cells, ELISA
  entry quantity of VLP compared with mock-treated control: 88%
